Source: patent US10111880B2, “Compounds for the treatment of diabetes and disease complications arising from same” (BEN-GURION UNIVERSITY OF THE NEGEV RESEARCH AND DEVELOPMENT …, priority 2013, dated 2018)

Tests used:
Format in all cases: in vivo, mouse
[1] = test system: STZ-induced diabetic ICR mice; experiment: Blood glucose in STZ-induced diabetic ICR mice, long-term AGS treatment (5 months) with or without insulin; set-up: Blood Glucose At 101 day / Blood Glucose At 111 day: unit: mg/dL; conditions: for circulating glucose levels in diabetic animals: summary statement
Procedure: [0182]7 week-old female ICR mice were intra-peritoneally injected with STZ (40 mg\Kg) for 5 consecutive days. Non-diabetic mice received citrate buffer (pH 4.3, cold), which served as the vehicle controls for this study. AGS-500 (6 mg\Kg) was then administered subcutaneously every 2 days, for 5 months, on the first day after STZ administration. A further control group, where DMSO was administered in accordance with this regimen, was included. Mice were divided into the following 6 groups (10 mice per group except STZ only-5 mice): • STZ only • STZ+DMSO • Citrate+DMSO 1% every day • STZ+AGS-499 (6 mg/kg) injected every day S.C • STZ+AGS-500 (6 mg/kg) injected every day S.C • STZ+AGS-500 (6 mg/kg) injected every other day S.C Mice were weighed and blood glucose levels were measured using a free style glucometer. Food consumption was also measured 24 hours prior to STZ injection. The concentration of STZ to be injected was calculated. STZ at 40 mg/kg was injected ip for 5 consecutive days. AGS treatment was administered one day following the last STZ injection. The establishment of diabetes was validated by the assessment of blood glucose levels performed every 3 days (at the beginning) and once a week after 59 days from the initiation of the experiment. Blood glucose levels over 200 mg/dl (measured 3 consecutive times) indicated a diabetic state. At 80 days from the initiation of the experiments each group was divided to 2 subgroups which received either insulin (4 units/kg) or acetic acid (0.015%) both in HEPES buffer (pH 7.45) injected every 48 hours. Mice were sacrificed after 5 months from the initiation of the experiments. Blood glucose levels were monitored every 3 days. Ten weeks after the beginning of this study, each group was divided into 2 sub-groups, one of each also received insulin (4 U\Kg) every 2 days, except for the non-diabetic sub-groups. Acetic acid (1%) served as the vehicle control.

[2] = test system: STZ-induced diabetic ICR mice; experiment: Glucose Tolerance Test (GTT) in STZ diabetic mice after 2 and 5 months; conditions: daily
Procedure: Glucose Tolerance Test: Animals were fasted for 12 hr with free access to water. Blood-glucose levels after fast were measured and then the animals received an i.p. injection of glucose (1.5 g/kg). Blood samples were taken at several intervals (for the duration of 2 hr), when glucose levels above 200 mg/dl at 2 hr confirmed a diagnosis of diabetes.
[…] Mice were subjected to 12 hours fast (with water) weighed, blood glucose level was measured and Glucose at 1.5 gr/kg in no more than 100 μl was injected IP. Blood glucose levels were measured at 10, 20, 30, 60, 90 and 120 min after glucose injection. glucose tolerance test.

[3] = test system: insulin expressing beta islets; experiment: Immunofluorescence of pancreatic slices with anti-insulin antibody, insulin expressing beta islets in mice; conditions: for pancreatic beta cell mass: summary statement
Procedure: The light grey (originally red) stains insulin producing cells, and the darker grey (originally blue) is for DAPI staining. Density of insulin staining per area was measured using “Image J” software (D-E). The results are mean±S.E.; n=4. ***p<0.005. Magnification: ×10.

[4] = test system: STZ-induced diabetic ICR mice; experiment: Blood glucose over time in STZ mice, short course (2 weeks) AGS treatment with or without insulin
Procedure: (§1) Eight weeks-old female ICR mice were injected intraperitoneally (IP) with Streptozotocin (STZ), at a dose of 40 mg/Kg, for 5 consecutive days. The following day and onward, mice were administered the AGS compounds (499 or 500, as indicated), at a dose of 6 mg/Kg, either subcutaneously or orally, every other day. Blood glucose levels were monitored daily.
(§2) After the establishment of diabetes (i.e. three consecutive blood glucose measurements of >200 mg/dL), mouse groups were further sub-divided into 2 sub-groups, one of each received insulin (gradual administration of 0.5-6 units/Kg, over a period of 2 weeks) subcutaneously, every other day. Blood glucose levels were monitored daily.

[5] = test system: STZ-induced diabetic ICR mice; experiment: Glucose tolerance test in STZ mice after short course (2 weeks) AGS treatment
Procedure: as §1, §2
Glucose tolerance tests were also performed as follows: After two weeks mice were fasted for 12 hours, then injected with D-glucose (1.5 g/Kg, IP) and blood glucose levels were examined at 0, 10, 20, 30, 60, 90 and 120 minutes, in order to evaluate pancreatic function.

[6] = test system: STZ-induced diabetic mice, kidney glomeruli; experiment: Kidney histopathology (PAS staining of glomeruli) in STZ diabetic mice; conditions: summary statement
Procedure: Mice were treated as described hereinabove. Following one month of treatment mice were sacrificed and histolopathological examination of the kidney was performed.
FIG. 9 plots the evaluation of a number of parameters assessed via the histopathology analysis.

With `CCOCc1cc(C(C)(c2cc(COCC)c(O)c(COCC)c2)c2cc(COCC)c(O)c(COCC)c2)cc(COCC)c1O` [AGS-499, 1,1,1,1-tris (4-hydroxy-3,5-methylene ethoxy-phenyl)-ethane] the “% reduction in blood glucose level” value ([1]; after 12 hours fast, day 142, 6 mg/kg s.c. daily) was 20%, the “Blood glucose level Average” value ([1]; after 12 hours fast, day 142, 6 mg/kg s.c. daily, in mg/dL (unit assumed)) was 317 and the “% reduction In blood Glucose 101 day” value ([1]; no insulin, daily) was 29%. The “Blood Glucose At 101 day” value ([1]; no insulin, daily) was 500, the “Blood Glucose At 111 day” value ([1]; no insulin, daily) was 500 and the “reduction In blood Glucose 111 day” value ([1]; no insulin, daily) was 17%. For the same molecule, the “Blood Glucose At 101 day” value ([1]; with insulin (4 units/kg every 48 hours), AGS daily) was 480, the “% reduction In blood Glucose 101 day” value ([1]; with insulin, AGS daily) was 32% and the “Blood Glucose At 111 day” value ([1]; with insulin, AGS daily) was 400. For the same molecule, the “reduction In blood Glucose 111 day” value ([1]; with insulin, AGS daily) was 34%, the “Improvement (fold)” value ([2]; GTT after 2 months) was 3 fold and the “Fold of Improvement” value ([2]; GTT after 5 months) was 3 fold. The “Time needed for the Pancreas to cope glucose load after 5 months” value ([2]; GTT) was 30 min, the “Time needed for the Pancreas to cope with glucose load after 2 months” value ([2]; GTT) was 30 min and the “No of insulin expressing beta islets/mouse” value ([3]; no insulin, daily) was 4.3. The “increase in Insulin expressing Beta islets” value (shortened to “increase”) ([3]; no insulin, daily) was 165%, the “No of insulin expressing beta islets/mouse” value ([3]; with insulin, AGS daily) was 3.5 and the “increase” value ([3]; with insulin, AGS daily) was 135%. For the same molecule, the “circulating glucose levels over time” value ([4]; 6 mg/Kg every other day, short course (2 weeks), FIG. 13-1) was “lowering circulating glucose levels significantly”, the “circulating glucose levels over time, combined with insulin therapy” value ([4]; short course, insulin 0.5-6 units/Kg, FIG. 13-2) was “synergistic contribution” and the “mean blood glucose levels in a glucose tolerance test” value ([5]; 6 mg/Kg subcutaneously or orally every other day, FIG. 11) was “reduced mean blood glucose levels”. The “effect of adding insulin on circulating glucose levels in a glucose tolerance test” value ([5]; AGS subcutaneously (AGS500 also orally), FIG. 12) was “adding insulin did not appreciably lower the circulating levels”.

With `CCOCc1cc(C(C)(c2cc(COCC)c(O)c(COCC)c2)c2cc(COCC)c(O)c(COCC)c2)cc(COCC)c1O` [formula XIII] the “circulating glucose levels in diabetic animals” value [1] was “promoted reduction of circulating glucose levels”, the “pancreatic beta cell mass” value [3] was “increase of pancreatic beta cell mass” and the “kidney damage in diabetic subjects” value [6] was “reduced kidney damage”.

For `CC(c1cc(Br)c(O)c(Br)c1)(c1cc(Br)c(O)c(Br)c1)c1cc(Br)c(O)c(Br)c1` [formula XIV], the “circulating glucose levels in diabetic animals” value [1] was “promoted reduction of circulating glucose levels”, the “pancreatic beta cell mass” value [3] was “increase of pancreatic beta cell mass” and the “kidney damage in diabetic subjects” value [6] was “reduced kidney damage”.

In the case of `CC(c1cc(CN2CCCC2)c(O)c(CN2CCCC2)c1)(c1cc(CN2CCCC2)c(O)c(CN2CCCC2)c1)c1cc(CN2CCCC2)c(O)c(CN2CCCC2)c1` [formula XI], the “circulating glucose levels in diabetic animals” value [1] is reported as “promoted reduction of circulating glucose levels”, the “pancreatic beta cell mass” value [3] is reported as “increase of pancreatic beta cell mass” and the “kidney damage in diabetic subjects” value [6] is reported as “reduced kidney damage”.

With “insulin: insulin (4 units/kg) in HEPES buffer injected every 48 hours [reference compound]” the “circulating glucose levels in control groups” value ([1]; insulin 4 U/Kg every 2 days, STZ-induced diabetic mice, FIG. 2C) was “lowered circulating glucose levels in control groups”, the “Blood Glucose At 101 day” value ([1]; insulin only (4 units/kg every 48 hours), STZ or STZ + vehicle groups) was 700 and the “Blood Glucose At 111 day” value ([1]; insulin only, STZ or STZ + vehicle groups) was 600. For the same molecule, the “No of insulin expressing beta islets/mouse” value ([3]; insulin alone (STZ, DMSO)) was 3.25 and the “increase” value ([3]; insulin alone (STZ, DMSO)) was 125%.
